The values below come from ChEMBL document CHEMBL1131006, “Antimycobacterial activity of substituted isosteres of pyridine- and pyrazinecarboxylic acids” (1998).

≈ marks a conversion by molar mass, not a printed value.

The test concerns Mycobacterium tuberculosis. Briefly: Compound was tested for inhibitory activity against Mycobacterium tuberculosis H37Rv ATCC 27294 and the activity is expressed as minimum inhibitory concentration (MIC). The test is classed as functional.
Compound `CC(C)(C)C(=O)OCn1nnnc1-c1cnccn1` had a minimal inhibitory concentration (MIC) of 13 µg/mL (≈ 49.6 µM). For `C[S+]([O-])CC(=O)c1ccncc1` (stereo unspecified) the value was over 210 µg/mL.

The compound `c1cc(C2N=NN=N2)ccn1` registered a minimum inhibitory concentration (MIC) of over 210 µg/mL. For `CCOC(=O)Oc1cc(=O)oc2cnccc12` the value was over 210 µg/mL; for `C[S+]([O-])CC(=O)c1cnccn1` (stereo unspecified), over 210 µg/mL; for `c1cnc(C2N=NN=N2)cn1`, over 210 µg/mL.

The compound `CC(C)(C)C(=O)OCn1nnnc1-c1ccncc1` returned a minimal inhibitory concentration (MIC) of 52 µg/mL (≈ 199 µM). For `NNC(=O)c1ccncc1` [ISONIAZID] the value was under 0.02 µg/mL; for `CC(C)(C)C(=O)OCn1nnnc1-c1cccnc1`, 105 µg/mL (≈ 402 µM); for `CSCC(=O)c1cnccn1`, 105 µg/mL (≈ 624 µM). For `CC(=O)Oc1cc(=O)oc2cnccc12` the value was over 210 µg/mL; for `O=c1cc(O)c2ccncc2o1`, over 210 µg/mL; for `C[S+]([O-])CC(=O)c1cccnc1` (stereo unspecified), over 210 µg/mL. For `CSCC(=O)c1cccnc1` the value was 210 µg/mL (≈ 1260 µM); for `CC(C)(C)C(=O)OCn1nnc(-c2cnccn2)n1`, 26 µg/mL (≈ 99.1 µM). Consider `CC(C)(C)C(=O)OCn1nnc(-c2ccncc2)n1`, for which the MIC was 26 µg/mL (≈ 99.5 µM).

With `CC(C)(C)C(=O)OCn1nnc(-c2cccnc2)n1`, the MIC is 13 µg/mL (≈ 49.8 µM). For `CSCC(=O)c1ccncc1` the value was 210 µg/mL (≈ 1260 µM); for `c1cncc(C2N=NN=N2)c1`, over 210 µg/mL; for `O=C(Oc1cc(=O)oc2cnccc12)c1ccccc1`, 210 µg/mL (≈ 786 µM).

Turning to `NC(=O)c1cnccn1` [PYRAZINAMIDE], the MIC amounted to 52 µg/mL (≈ 422 µM).

By MIC is commonly meant the lowest concentration that inhibits growth of the organism. Low readings indicate a more susceptible organism, high ones a less susceptible organism.
